Patent publication US20250154105A1, “POLYCYCLIC COMPOUND AND USE THEREOF” (TYK MEDICINES, INC., priority 2021, published 2025)

Tests used:
YAP-TEAD = YAP-TEAD inhibitor activity by Nano luciferase method (8xGTiiC-nLuc reporter in 293T cells); format: cell-based; details: Homo sapiens, HEK-293T, 48 hours incubation, read-out: Nano-luciferase detection (IC50)
Summary of the method: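 293T cells transiently transfected with pGL3B-8xGTiiC-nLuc-CMV-fLuc, seeded 2000 cells/well, then treated 48 h at 37 °C with compounds in 1:3.16 dilution series (top 10,000 nM). Nano luciferase signal read after cell lysis; IC50 from percent of 0 nM control.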

[1] = tested on: human pleural mesothelioma cells NCI-H226; experiment: Cell anti-proliferation experiment (CCK8), NCI-H226; format: cell-based
Summary of the method: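 Viability was measured by CCK-8 (3 h, A450) after 3-day treatment with 0.15–333.33 nM compound in 0.1% DMSO medium. Curve-fitted IC50 was based on viability normalised to no-drug and cell-free controls.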

IC50 (YAP-TEAD) [µM]	IC50 [1] [µM]	Compound
≤ 1	≤ 1	C[C@H](NC(=O)c1ccc2c(c1)c1cccc(C#N)c1c(=O)n2-c1ccc(C(F)(F)F)cc1)c1ccccn1 [Example T-321]
≤ 1	≤ 1	C[C@H](NC(=O)c1ccc2c(c1)c1c(c(=O)n2-c2ccc(C(F)(F)F)nc2)CCC1)c1ccccn1 [Example T-262]
≤ 1	≤ 1	C[C@H](NC(=O)c1ccc2c(c1)c1cnncc1c(=O)n2-c1ccc(C(F)(F)F)cc1)c1ccccn1 [Example T-335]
≤ 1	≤ 1	CNc1cccc([C@H](C)NC(=O)c2ccc3c(ccc(=O)n3-c3ccc(C(F)(F)F)cc3)c2)n1 [Example T-430]
≤ 1	≤ 1	C[C@H](NC(=O)c1ccc2c(c1)c1nccnc1c(=O)n2-c1ccc(C(F)(F)F)cc1)c1ccccn1 [Example T-337]
≤ 1	≤ 1	Cc1cc2cc(C(=O)N[C@@H](C)c3ccccc3)cnc2n(-c2ccc(C(F)(F)F)cc2)c1=O [Example T-462]
≤ 1	≤ 1	CNS(=O)(=O)c1ccc2c(c1)c1nn(C)cc1c(=O)n2-c1ccc(C(F)(F)F)cc1 [Example T-31]
≤ 1	≤ 1	C[C@H](NC(=O)c1ccc2c(c1)-c1nn(C)cc1[C@@H](C)N2c1ccc(C(F)(F)F)cc1)c1ccccn1 [Example T-326]
≤ 1	≤ 1	C[C@H](NC(=O)c1cnc2c(c1)c1ccsc1c(=O)n2-c1ccc(C(F)(F)F)cc1)c1ccccn1 [Example T-378]
≤ 1	≤ 1	COCCOC(=O)Nc1ccc2c(c1)c1nn(C)cc1c(=O)n2-c1ccc(C(F)(F)F)cc1 [Example T-192]
≤ 1	≤ 1	CC1c2ccccc2-c2cc(C(=O)N[C@@H](C)c3ccccn3)ccc2N1c1ccc(C(F)(F)F)cc1 (some centres unmarked) [Example T-281]
≤ 1	≤ 1	CNS(=O)(=O)c1ccc2c(c1)-c1cn(C)nc1CCN2c1ccc(C(F)(F)F)cc1 [Example T-55]
≤ 1	≤ 1	Cc1cccc([C@H](C)NC(=O)c2ccc3c(c2)c2nn(C)cc2c(=O)n3-c2ccc(C(F)(F)F)cc2)n1 [Example T-151]
≤ 1	≤ 1	Cc1cc2cc(C(=O)N[C@@H](C)c3cccc(N)n3)ccc2n(-c2ccc(C(F)(F)F)cc2)c1=O [Example T-414]
≤ 1	≤ 1	C[C@H](NC(=O)c1ccc2c(c1)c1c(c(=O)n2-c2ccc(C(F)(F)F)cc2)CCCC1)c1cccc(N)n1 [Example T-428]
≤ 1	≤ 1	Cn1cc2c(=O)n(-c3ccc(C(F)(F)F)cc3)c3ccc(NC(=O)C(F)(F)F)cc3c2n1 [Example T-174]
≤ 1	≤ 1	C[C@H](NC(=O)c1ccc2c(c1)c1cc(Cl)ccc1c(=O)n2-c1ccc(C(F)(F)F)cc1)c1ccccn1 [Example T-311]
≤ 1	≤ 1	CNS(=O)(=O)c1ccc2c(c1)c1cn(CCOC)nc1c(=O)n2-c1ccc(C(F)(F)F)cc1 [Example T-45]
≤ 1	≤ 1	C[C@H](NC(=O)c1ccc2c(c1)-c1cscc1CN2C1CCC(C(F)(F)F)CC1)c1ccccn1 (some centres unmarked) [Example T-269]
≤ 1	≤ 1	C[C@H](NC(=O)c1ccc2c(c1)c1csnc1c(=O)n2-c1ccc(C(F)(F)F)cc1)c1ccccn1 [Example T-328]
≤ 1	≤ 1	C[C@H](NC(=O)c1ccc2c(c1)c1c(c(=O)n2-c2ccc(C(F)(F)F)cc2)CN(C)C1)c1ccccn1 [Example T-287]
1 to 5	1 to 5	C=CC(=O)N[C@@H](C)c1c(C)c2ccccc2n(-c2ccc(C(F)(F)F)cc2)c1=O [Example T-284]

IC50 (YAP-TEAD) [µM]	IC50 [1] [µM]	Compound
≤ 1	≤ 1	C[C@H](NC(=O)c1ccc2c(n1)c1cscc1c(=O)n2-c1ccc(C(F)(F)F)cc1)c1ccccn1 [Example T-384]
≤ 1	≤ 1	CNS(=O)(=O)c1ccc2c(c1)-c1nn(C)cc1CC(=O)N2c1ccc(C(F)(F)F)cc1 [Example T-51]
1 to 5	1 to 5	C[C@H](NS(=O)(=O)c1ccc2c(c1)c1nn(C)cc1c(=O)n2-c1ccc(C(F)(F)F)cc1)c1ccccc1 [Example T-165]
≤ 1	≤ 1	C=CC(=O)Nc1ccc2c(c1)c1nn(C)cc1c(=O)n2-c1ccc(S(F)(F)(F)(F)F)cc1 [Example T-231]
≤ 1	≤ 1	C[C@H](NC(=O)c1ccc2c(c1)c1nn(C)cc1c(=O)n2-c1ccc(C(F)(F)F)cc1)c1cc(Cl)ccn1 [Example T-128]
≤ 1	≤ 1	C=CC(=O)Nc1cnc2c(c1)c1nn(C)cc1c(=O)n2-c1ccc(C(F)(F)F)cc1 [Example T-241]
≤ 1	≤ 1	Cn1cc2c(=O)n(-c3ccc(C(F)(F)F)cc3)c3ccc(NC(N)=O)cc3c2n1 [Example T-183]
≤ 1	≤ 1	CNS(=O)(=O)c1ccc2c(c1)c1ncn(C)c1c(=O)n2Cc1ccc(C(F)(F)F)cc1 [Example T-48]
≤ 1	≤ 1	C[C@H](NC(=O)c1ccc2c(c1)c1csc(F)c1c(=O)n2-c1ccc(C(F)(F)F)cc1)c1ccccn1 [Example T-299]
1 to 5	1 to 5	C[C@H](NC(=O)c1ccc2c(c1)c1nn(C)cc1c(=O)n2-c1ccc(C(F)(F)F)cc1)c1ccc(F)cn1 [Example T-144]
≤ 1	≤ 1	CC(C)NC(=O)c1ccc2c(ccc(=O)n2-c2ccc(C(F)(F)F)cc2)c1 [Example T-3]
≤ 1	≤ 1	Cc1ccc2c(=O)n(-c3ccc(C(F)(F)F)cc3)c3ccc(C(=O)N[C@@H](C)c4ccccn4)cc3c2c1 [Example T-255]
≤ 1	≤ 1	C[C@H](NC(=O)c1cnc2c(c1)c1sccc1c(=O)n2-c1ccc(C(F)(F)F)cc1)c1ccccn1 [Example T-377]
≤ 1	1 to 5	C[C@H](NC(=O)c1ccc2c(c1)c1c(cnn1CC(F)(F)F)c(=O)n2-c1ccc(C(F)(F)F)cc1)c1ccccn1 [Example T-411]
≤ 1	≤ 1	C[C@H](NC(=O)c1ccc2c(c1)c1nn(C)cc1c(=O)n2-c1ccc(C(F)(F)F)cc1)c1cccc(F)n1 [Example T-153]
≤ 1	≤ 1	C[C@H](NC(=O)c1ccc2c(c1)c1cocc1c(=O)n2-c1ccc(C(F)(F)F)cc1)c1ccccn1 [Example T-286]
≤ 1	≤ 1	CC1CCc2c1c1cc(C(=O)N[C@@H](C)c3ccccn3)ccc1n(-c1ccc(C(F)(F)F)cc1)c2=O (some centres unmarked) [Example T-445]
1 to 5	≤ 1	Cc1c(-c2ccccc2)c(=O)n(-c2ccc(C(F)(F)F)cc2)c2ccc(C(=O)N[C@@H](C)c3ccccn3)cc12 [Example T-279]
≤ 1	≤ 1	Cc1c(Br)c(=O)n(-c2ccc(C(F)(F)F)cc2)c2ccc(C(=O)N[C@@H](C)c3ccccn3)cc12 [Example T-278]
1 to 5	1 to 5	CN(C)Cc1cccc(NC(=O)c2ccc3c(c2)c2nn(C)cc2c(=O)n3-c2ccc(C(F)(F)F)cc2)c1 [Example T-115]
≤ 1	≤ 1	C[C@H](NC(=O)c1ccc2c(c1)c1cscc1c(=O)n2-c1ccc(S(F)(F)(F)(F)F)cc1)c1ccccn1 [Example T-274]
